Values of other authors in patent publication US20100322892A1, “PESTICIDE COMPOSITIONS AND APPLICATORS” (BASF CORPORATION, priority 2009, published 2010).

What was measured:
[1] = system: termites; conditions: in vivo
[2] = system: ants; conditions: in vivo

For N#Cc1nn(-c2c(Cl)cc(C(F)(F)F)cc2Cl)c(N)c1[S+]([O-])C(F)(F)F (racemic) [fipronil, (±)-5-amino-1-(2,6-dichloro-α,α,α-trifluoro-p-tolyl)-4-trifluoromethylsulfinylpyrazole-3-carbonitrile], the “Dose toxic to termites” value [1] is given as 2 nanograms per termite and the “Dose toxic to ants” value [2] is given as “about 1 nanogram per ant”.
